Data from patent publication EP1991561B1, “BRANCHED MULTIMERIC PEPTIDES FOR TUMOR DIAGNOSIS AND THERAPY” (Universita' Degli Studi di Siena, priority 2006, dated 2007).
Where two headings read alike, the source gives them in different places.

Tests used:
HT29 tumors [1] = assay: In vivo tumor growth retardation, HT29 tumors grafted in nude mice; parameters: species or system CD-1 nude mice; settings: i.v. on days 0, 5, 10 and 15, 4.05 µmol/kg
From the text: The invention will be now described by non limiting examples referring to the following figures: • FIGURE 1. […] NT4(8-13) peptide binding and cell internalization. […] Lysosome localization of NT4(8-13)-TMR. […] NT4(8-13) binding to colon and pancreas tumoral biopsies. Confocal microscopy images of (A) human sections of colon carcinoma, (B) healthy colon, (C) pancreatic carcinoma and (D) healthy pancreas. […] NTR regeneration. […] NT4(8-13)-Che6 cytotoxicity. […] The cells were then washed to remove unbound conjugate and irradiated (except for dark controls) with a total light dose of 3 J/cm^2. Drug phototoxicity was assessed by measuring cell survival, using the MTT assay 24 hours after irradiation. Negative controls (--) included HT29 cells incubated with the conjugate and not irradiated, cells irradiated and not incubated and untreated cells. • FIGURE 9. […] Inhibition of cell growth was tested by an MTT assay after 72 hours of incubation. • FIGURE 10. In vivo tumor growth retardation mediated by NT4(8-13)-MTX. […] Five days after the last injection, animals were sacrificed and tumors were removed and weighed.

NT receptors (NTR) = biological target: T1, NT receptors (NTR) (Homo sapiens, UniProt P30989); assay: Inhibition of 125I-NT binding to HT29 cell membranes; settings: displacement of 125I-NT, HT29 human adenocarcinoma cell membranes
T1 construct: HT29 human adenocarcinoma cell membranes, that over-express NTR; endogenous in cells; host or cells: HT29 human colon adenocarcinoma cell membranes
From the text: A tetrameric peptide carrying scrambled NT aminoacids (LRIPRY), scramble NT4(8-13), was used as control and allowed to verify sequence specificity.

human colon tumors = assay: Fluorescent detection of NT receptors in colon biopsy sections; type: binding; settings: 0.5 µg/ml, avidin-FITC
Description: (§2) Tumoral and healthy colon and pancreatic tissues were collected from oncological patients undergoing tumor resection. Frozen tissue tek® (Sakura Finetechnical, Tokyo, Japan) embedded tissues were sliced 15 µm thick in a cryostat (Reichert- Jung 2800 frigocut N) and placed on glass slides. Serial sections of the same biopsy were analysed both by hematoxylin/eosin (H&E) light microscopy and by fluorescent confocal microscopy. For immunofluorescent analysis the sections were fixed by immersion in 3% paraformaldehyde in PBS for 15' at room temperature., washed once and stored over night at 4°C with 0.1 M glycine in PBS. After saturation with fetal calf serum, the slices were incubated for 30' at 37°C with NT4(8-13)-Bio (0.5 µg/ml in PBS-BSA 3%) or with the uncorrelated branched peptide (DDHSAV, SEQ ID No. 4)4-Bio (0.5 µg/ml in PBS-BSA 3%), washed twice with PBS and incubated with avidin-FITC (0.5 µg/ml in PBS-BSA 3%) for 15' at room temperature. After washing, the sections were mounted with Mowiol® (Calbiochem, Cat. No. 475904) and sealed with nail polish. Negative controls were carried out incubating the slices (both tumoral and normal tissues) with avidin-FITC without previous incubation with NT4(8-13)-Bio. The fluorescine signal was observed by confocal laser microscopy (BIO-Rad MRC600) with a 488 nm excitation light.

HT29 cells [2] = system: HT29 cells
From the text: Nonetheless, down-regulation of receptors and their depletion from the membrane may dramatically impair the efficiency of a peptide-based therapy.

[3] = system: healthy and tumoral pancreatic tissues; settings: 0.5 µg/ml, avidin-FITC
Description: as §2

HT29 cells [4] = assay: Phototoxicity (photokilling) by MTT assay; type: cell-based, human; settings: 4 hours at 37°C in the dark, 100 µM to 0.1 µM, irradiated 3 J/cm^2
Description: In order to assess the phototoxicity of NT4(8-13)-Che6 conjugate, photokilling experiments were carried out on HT29 cells. HT29 cells (2 x 10^4/well) were plated in 96-well microplates. After growing for 2 days, the cells were incubated at 37°C in the dark with different concentrations of NT4-Che6 (from 100 µM to 0.1 µM in RPMI with 10% FCS) for 4 hours. The cells were then washed to remove unbound conjugate and irradiated (except dark controls) with a Zeiss KL1500 tungsten halogen lamp (Zeiss, Jena, Germany) equipped with a 600-800 nm band pass filter (Corion, Franklin, MA) and with two optical fibers placed 1 cm from the well. The plate was placed back in the incubator overnight and the phototoxicity of the conjugate was monitored in a MTT assay. Similar experiments were performed with scramble NT4(8-13)-Che6 [(LRIPRY)4-Che6] and with free Che6. Further controls included HT29 cells incubated with the conjugate and not irradiated, cells irradiated and not incubated and untreated cells.

HT29 cells [5] = assay: In vitro cytostatic activity by MTT assay, HT29; type: cell-based, human
Description: HT29 cells were plated in 0.2 ml aliquots at a density of 5 x 10^3 in a 96-well microplate. Different concentrations of NT4-MTX were added 24 hours after plating. Growth inhibition was assessed by MTT assay 6 days later. The same experiments were carried out with the scramble analog of the conjugate and with free MTX.
The same experiments were performed with the scramble analogue [(LRIPRY)4-MTX] and with unconjugated MTX. SW620 (NTR-expressing human colon carcinoma cell line, Istituto Zooprofilattico Sperimentale, Brescia, Italy) and on HCT116 (NTR-expressing human colon carcinoma cell line, Istituto Zooprofilattico Sperimentale, Brescia, Italy cell lines) were also tested with the same procedure.

HT29 tumors [6] = system: HT29 tumors
Description: Female CD-1 nude mice (Charles River Laboratories Inc., Wilmington, MA) 6-7 weeks of age (mean weight of 25 g), were injected subcutaneously in the right flank with of 2 x 10^6 HT29 cells.
Tumor volumes were measured daily with a caliper using the following formula: Volume = length x width^2 x Π/6. The tumor volumes for each group were pooled to plot mean tumor growth curves. At the end of the experiment, the mice were sacrificed. Tumors were removed and weighed and the weights compared between treated and control mice.

HT29 cells [7] = assay: Confocal laser microscopy receptor binding assay on HT29 cells; type: cell-based, human; settings: 5 µg/ml in PBS - 1% BSA, 1 hour at 4°C
Description: (§1) Confocal laser microscopy was used to carry out receptor binding assays. […] After fixing with 4% formalin, the plasma membrane was stained by incubation with concanavalin A-biotin (10 µg/mL in PBS - 1% BSA, Molecular Probes, Cat. No. C21420) at 4°C for 15 min and avidin-FITC (0.5 µg/ml in PBS - 1% BSA, Sigma, Cat. No S3762).

HaCat cells = settings: 5 µg/ml, 1h at 4°C
Description: as §1

HT29 cells [8] = settings: 1 h at 4°C, washed, then 37°C
HT29 cells [9] = assay: Lysosomal localization with lysotracker green in HT29 cells; settings: 1 h at 4°C followed by 4 hours in DMEM at 37°C

T1 sequence (P30989 whole entry): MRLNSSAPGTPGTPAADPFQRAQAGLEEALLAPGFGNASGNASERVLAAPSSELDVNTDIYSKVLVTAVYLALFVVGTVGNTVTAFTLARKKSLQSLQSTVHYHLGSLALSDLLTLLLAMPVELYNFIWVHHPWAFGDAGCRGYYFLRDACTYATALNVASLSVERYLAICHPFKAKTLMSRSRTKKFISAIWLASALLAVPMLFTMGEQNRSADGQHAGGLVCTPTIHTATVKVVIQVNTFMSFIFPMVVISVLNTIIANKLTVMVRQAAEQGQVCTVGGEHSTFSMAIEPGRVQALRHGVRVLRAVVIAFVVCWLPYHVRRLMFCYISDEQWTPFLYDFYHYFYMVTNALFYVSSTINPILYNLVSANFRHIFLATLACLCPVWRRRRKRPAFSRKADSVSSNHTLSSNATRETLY

Molecule: CN(Cc1cnc2nc(N)nc(N)c2n1)c1ccc(C(=O)N[C@@H](CCC(=O)O)C(=O)O)cc1 [MTX, Methotrexate]
- tumor growth (HT29 tumors [1]; compared to control mice): slight decrease in tumor growth
- Tumor weight, measured at the end of the experiment (HT29 tumors [1]; five days after the last injection, Fig. 10): almost the same

Molecule: Tetrameric NT(8-13)4-PEG-Biotin [NT4(8-13)-Bio]
- IC50 (NT receptors (NTR)): 0.1 nM
- fluorescent staining of tumoral biopsies (human colon tumors; colon tumoral biopsies (ten), 30' at 37°C): All colon tumoral specimens were positively stained
- fluorescent staining of healthy tissue (human colon tumors; corresponding normal colon tissue from the same patient): only one of the healthy tissues showed a low fluorescent signal
- green signal (avidin FITC) after receptor saturation (HT29 cells [2]; 0.5 µg/ml, directly after saturation with NT4(8-13)-TMR): did not produce any detectable green signal
- receptor availability for ligand binding after regeneration (HT29 cells [2]; after saturation with NT4(8-13)-TMR, washing and 37°C in culture medium overnight): the receptor was again available for ligand binding
- binding to tumoral versus healthy tissue [3]: Analogous results

Molecule: tetrabranched NT(8-13)4-PEG-Chlorine e6 [NT4(8-13)-Che6]
- IC50 (NT receptors (NTR)): 2200 nM
- phototoxicity (cell survival, MTT) (HT29 cells [4]): maintained its cytotoxicity

Molecule: tetrabranched NT(8-13)-PEG-Methotrexate [NT4(8-13)-MTX]
- IC50 (NT receptors (NTR)): 500 nM
- cytostatic activity (inhibition of cell growth, MTT) (HT29 cells [5]): active
- mice death (HT29 tumors [6]; 4.05 µmol/kg iv on days 0, 5, 10 and 15): no mice death was observed
- Tumor weight (HT29 tumors [6]; at the end of the experiment, 4.05 µmol/kg iv x4): significantly reduced
- tumor growth (HT29 tumors [6]; iv on days 0, 5, 10 and 15, 4.05 µmol/kg, compared to control mice): prevented tumor growth
- volume of tumors relative to mice injected with PBS (HT29 tumors [6]; iv on days 0, 5, 10 and 15, 4.05 µmol/kg, over the whole treatment): about one third

Molecule: tetrameric NT(8-13)4-PEG-Tetramethyl rhodamine [NT4(8-13)-TMR]
- red fluorescent signal on the plasma membrane (HT29 cells [7]): binding of the peptide to membrane receptors
- rhodamine signal (HaCat cells): no rhodamine signal
- saturation of membrane receptors (HT29 cells [2]; 100 µg/ml in PBS - 1% BSA, 1 h at 4°C): saturated
- peptide fluorescence localization (HT29 cells [8]; 4 hours): completely internalised
- peptide fluorescence localization (HT29 cells [8]; 18 hours): complete degradation of the peptide conjugate
- peptide fluorescence localization (HT29 cells [8]; time 0): localized exclusively on the plasma membrane
- peptide fluorescence localization (HT29 cells [8]; two hours): present on the plasma membrane and in the cytoplasm
- lysosomal localization (HT29 cells [9]): colocalization of NT4(8-13)-TMR with lysotracker green was observed
